Columns and labels:
late watergrass = experiment: Test Example 1: herbicidal activity, application before weed generation under submerged conditions (Table 16, symbol A); type: in vivo, late watergrass (Echinochloa oryzicola); details: amount of applied herbicide 320 g/ha
Summary of the method: (§1)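 Alluvial soil was flooded to 4 cm depth, weed seeds were sown mixed and 2.5-leaf rice seedlings were transplanted. On sowing day, the compound's emulsion, diluted in water to a set dose, was applied to the water surface. Plants grew at 25–30 °C and were scored 0–5 after three weeks.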

Japanese bulrush = experiment: Test Example 1: herbicidal activity, application before weed generation under submerged conditions (Table 16, symbol B); type: in vivo, Japanese bulrush (Schoenoplectus juncoides); details: amount of applied herbicide 320 g/ha
Summary of the method: as §1

oval-leafed pondweed = experiment: Test Example 1: herbicidal activity, application before weed generation under submerged conditions (Table 16, symbol C); type: in vivo, oval-leafed pondweed (Monochoria vaginalis); details: amount of applied herbicide 320 g/ha
Summary of the method: as §1

barnyard grass [1] = experiment: Test Example 3: herbicidal effect by foliage application, Wagner pot (Table 18, symbol H); type: in vivo, barnyard grass (Echinochloa crus-galli); details: 320 g/ha
Summary of the method: (§2)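 Plants were sown in alluvial soil held under 0.1–0.5 cm standing water and grown 14 days in a greenhouse at 25–30 °C. An emulsifiable formulation, water-diluted to the set dose, was then sprayed onto the foliage, and effects were scored three weeks later using previously defined criteria.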

Chinese sprangletop = experiment: Test Example 3: herbicidal effect by foliage application, Wagner pot (Table 18, symbol D); type: in vivo, chinese sprangletop (Leptochloa chinensis); details: 320 g/ha
Summary of the method: as §2

rice flat sedge = experiment: Test Example 3: herbicidal effect by foliage application, Wagner pot (Table 18, symbol E); type: in vivo, rice flat sedge (Cyperus iria); details: 320 g/ha
Summary of the method: as §2

southern crabgrass [2] = experiment: Test Example 4: herbicidal effect by soil treatment (Table 19, symbol F); type: in vivo, southern crabgrass (Digitaria ciliaris); details: amount of applied herbicide 320 g/ha
Summary of the method: (§3)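 Seeds were sown in sterilized diluvial soil and covered with about 1.5 cm of soil. An emulsion formulation diluted with water to a predetermined herbicide amount was sprayed evenly onto the soil surface. Plants grew in a greenhouse at 25° C. to 30° C., and the effect was scored three weeks after application using criteria from an earlier test.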

green foxtail [3] = experiment: Test Example 4: herbicidal effect by soil treatment (Table 19, symbol G); type: in vivo, green foxtail (Setaria viridis); details: amount of applied herbicide 320 g/ha
Summary of the method: as §3

barnyard grass [4] = experiment: Test Example 4: herbicidal effect by soil treatment (Table 19, symbol H); type: in vivo, barnyard grass (Echinochloa crus-galli); details: amount of applied herbicide 320 g/ha
Summary of the method: as §3

wild oat [5] = experiment: Test Example 4: herbicidal effect by soil treatment (Table 19, symbol I); type: in vivo, wild oat (Avena fatua); details: amount of applied herbicide 320 g/ha
Summary of the method: as §3

blackgrass [6] = experiment: Test Example 4: herbicidal effect by soil treatment (Table 19, symbol J); type: in vivo, blackgrass (Alopecurus myosuroides); details: amount of applied herbicide 320 g/ha
Summary of the method: as §3

Italian ryegrass [7] = experiment: Test Example 4: herbicidal effect by soil treatment (Table 19, symbol K); type: in vivo, Italian ryegrass (Lolium multiflorum); details: amount of applied herbicide 320 g/ha
Summary of the method: as §3

windgrass [8] = experiment: Test Example 4: herbicidal effect by soil treatment (Table 19, symbol L); type: in vivo, windgrass (Apera spica-venti); details: amount of applied herbicide 320 g/ha
Summary of the method: as §3

velvetleaf [9] = experiment: Test Example 4: herbicidal effect by soil treatment (Table 19, symbol M); type: in vivo, velvetleaf (Abutilon theophrasti); details: amount of applied herbicide 320 g/ha
Summary of the method: as §3

redroot pigweed [10] = experiment: Test Example 4: herbicidal effect by soil treatment (Table 19, symbol N); type: in vivo, redroot pigweed (Amaranthus retroflexus); details: amount of applied herbicide 320 g/ha
Summary of the method: as §3

lambsquarters [11] = experiment: Test Example 4: herbicidal effect by soil treatment (Table 19, symbol O); type: in vivo, lambsquarters (Chenopodium album); details: amount of applied herbicide 320 g/ha
Summary of the method: as §3

chickweed [12] = experiment: Test Example 4: herbicidal effect by soil treatment (Table 19, symbol P); type: in vivo, common chickweed (Stellaria media); details: amount of applied herbicide 320 g/ha
Summary of the method: as §3

false cleavers [13] = experiment: Test Example 4: herbicidal effect by soil treatment (Table 19, symbol Q); type: in vivo, false cleavers (Galium spurium); details: amount of applied herbicide 320 g/ha
Summary of the method: as §3

persian speedwell [14] = experiment: Test Example 4: herbicidal effect by soil treatment (Table 19, symbol R); type: in vivo, Persian speedwell (Veronica persica); details: amount of applied herbicide 320 g/ha
Summary of the method: as §3

southern crabgrass [15] = experiment: Test Example 5: herbicidal effect by foliage application, plastic box (Table 20, symbol F); type: in vivo, southern crabgrass (Digitaria ciliaris); details: foliage application, 320 g/ha, three weeks after application
Summary of the method: (§4)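 Plants sown in sterilized diluvial soil and grown 14 days in a greenhouse at 25° C to 30° C, then sprayed on the foliage with the compound's emulsion diluted in water to a predetermined herbicide amount. Injury to weeds and crops scored three weeks after application on a visual rating scale.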

green foxtail [16] = experiment: Test Example 5: herbicidal effect by foliage application, plastic box (Table 20, symbol G); type: in vivo, green foxtail (Setaria viridis); details: foliage application, 320 g/ha, three weeks after application
Summary of the method: as §4

barnyard grass [17] = experiment: Test Example 5: herbicidal effect by foliage application, plastic box (Table 20, symbol H); type: in vivo, barnyard grass (Echinochloa crus-galli); details: foliage application, 320 g/ha, three weeks after application
Summary of the method: as §4

wild oat [18] = experiment: Test Example 5: herbicidal effect by foliage application, plastic box (Table 20, symbol I); type: in vivo, wild oat (Avena fatua); details: foliage application, 320 g/ha, three weeks after application
Summary of the method: as §4

blackgrass [19] = experiment: Test Example 5: herbicidal effect by foliage application, plastic box (Table 20, symbol J); type: in vivo, blackgrass (Alopecurus myosuroides); details: foliage application, 320 g/ha, three weeks after application
Summary of the method: as §4

Italian ryegrass [20] = experiment: Test Example 5: herbicidal effect by foliage application, plastic box (Table 20, symbol K); type: in vivo, Italian ryegrass (Lolium multiflorum); details: foliage application, 320 g/ha, three weeks after application
Summary of the method: as §4

windgrass [21] = experiment: Test Example 5: herbicidal effect by foliage application, plastic box (Table 20, symbol L); type: in vivo, windgrass (Apera spica-venti); details: foliage application, 320 g/ha, three weeks after application
Summary of the method: as §4

velvetleaf [22] = experiment: Test Example 5: herbicidal effect by foliage application, plastic box (Table 20, symbol M); type: in vivo, velvetleaf (Abutilon theophrasti); details: foliage application, 320 g/ha, three weeks after application
Summary of the method: as §4

redroot pigweed [23] = experiment: Test Example 5: herbicidal effect by foliage application, plastic box (Table 20, symbol N); type: in vivo, redroot pigweed (Amaranthus retroflexus); details: foliage application, 320 g/ha, three weeks after application
Summary of the method: as §4

lambsquarters [24] = experiment: Test Example 5: herbicidal effect by foliage application, plastic box (Table 20, symbol O); type: in vivo, lambsquarters (Chenopodium album); details: foliage application, 320 g/ha, three weeks after application
Summary of the method: as §4

chickweed [25] = experiment: Test Example 5: herbicidal effect by foliage application, plastic box (Table 20, symbol P); type: in vivo, common chickweed (Stellaria media); details: foliage application, 320 g/ha, three weeks after application
Summary of the method: as §4

false cleavers [26] = experiment: Test Example 5: herbicidal effect by foliage application, plastic box (Table 20, symbol Q); type: in vivo, false cleavers (Galium spurium); details: foliage application, 320 g/ha, three weeks after application
Summary of the method: as §4

persian speedwell [27] = experiment: Test Example 5: herbicidal effect by foliage application, plastic box (Table 20, symbol R); type: in vivo, Persian speedwell (Veronica persica); details: foliage application, 320 g/ha, three weeks after application
Summary of the method: as §4

Cc1ccc2c(-c3c(O)c(C)nn(C)c3=O)c(-c3ccc4c(c3)OCCO4)sc2c1 [3-059]
Herbicidal effect, A: late watergrass (late watergrass): 2 (Herbicidal rate of 20% or more and less than 40%)
Herbicidal effect, B: Japanese bulrush (Japanese bulrush): 1 (Herbicidal rate of 5% or more and less than 20%)
Herbicidal effect, C: oval-leafed pondweed (oval-leafed pondweed): 2 (Herbicidal rate of 20% or more and less than 40%)
herbicidal effect on barnyard grass (H) (barnyard grass [1]): 4 (Herbicidal rate of 70% or more and less than 90%)
herbicidal effect on Chinese sprangletop (D) (Chinese sprangletop): 0 (Herbicidal rate of 5% or less (almost no effect))
herbicidal effect on rice flat sedge (E) (rice flat sedge): 4 (Herbicidal rate of 70% or more and less than 90%)
F: southern crabgrass, herbicidal effect grade (southern crabgrass [2]): 0 (Herbicidal rate of 5% or less (almost no effect))
G: green foxtail, herbicidal effect grade (green foxtail [3]): 0 (Herbicidal rate of 5% or less (almost no effect))
H: barnyard grass, herbicidal effect grade (barnyard grass [4]): 0 (Herbicidal rate of 5% or less (almost no effect))
I: wild oat, herbicidal effect grade (wild oat [5]): 0 (Herbicidal rate of 5% or less (almost no effect))
J: blackgrass, herbicidal effect grade (blackgrass [6]): 0 (Herbicidal rate of 5% or less (almost no effect))
K: Italian ryegrass, herbicidal effect grade (Italian ryegrass [7]): 0 (Herbicidal rate of 5% or less (almost no effect))
L: windgrass, herbicidal effect grade (windgrass [8]): 0 (Herbicidal rate of 5% or less (almost no effect))
M: velvetleaf, herbicidal effect grade (velvetleaf [9]): 0 (Herbicidal rate of 5% or less (almost no effect))
N: redroot pigweed, herbicidal effect grade (redroot pigweed [10]): 0 (Herbicidal rate of 5% or less (almost no effect))
O: lambsquarters, herbicidal effect grade (lambsquarters [11]): 0 (Herbicidal rate of 5% or less (almost no effect))
P: chickweed, herbicidal effect grade (chickweed [12]): 0 (Herbicidal rate of 5% or less (almost no effect))
Q: false cleavers, herbicidal effect grade (false cleavers [13]): 0 (Herbicidal rate of 5% or less (almost no effect))
R: persian speedwell, herbicidal effect grade (persian speedwell [14]): 5 (Herbicidal rate of 90% or more (almost completely withered))
F: southern crabgrass, herbicidal effect grade (southern crabgrass [15]): 0 (Herbicidal rate of 5% or less (almost no effect))
G: green foxtail, herbicidal effect grade (green foxtail [16]): 0 (Herbicidal rate of 5% or less (almost no effect))
H: barnyard grass, herbicidal effect grade (barnyard grass [17]): 0 (Herbicidal rate of 5% or less (almost no effect))
I: wild oat, herbicidal effect grade (wild oat [18]): 0 (Herbicidal rate of 5% or less (almost no effect))
J: blackgrass, herbicidal effect grade (blackgrass [19]): 0 (Herbicidal rate of 5% or less (almost no effect))
K: Italian ryegrass, herbicidal effect grade (Italian ryegrass [20]): 4 (Herbicidal rate of 70% or more and less than 90%)
L: windgrass, herbicidal effect grade (windgrass [21]): 0 (Herbicidal rate of 5% or less (almost no effect))
M: velvetleaf, herbicidal effect grade (velvetleaf [22]): 0 (Herbicidal rate of 5% or less (almost no effect))
N: redroot pigweed, herbicidal effect grade (redroot pigweed [23]): 0 (Herbicidal rate of 5% or less (almost no effect))
O: lambsquarters, herbicidal effect grade (lambsquarters [24]): 0 (Herbicidal rate of 5% or less (almost no effect))
P: chickweed, herbicidal effect grade (chickweed [25]): 5 (Herbicidal rate of 90% or more (almost completely withered))
Q: false cleavers, herbicidal effect grade (false cleavers [26]): 2 (Herbicidal rate of 20% or more and less than 40%)
R: persian speedwell, herbicidal effect grade (persian speedwell [27]): 5 (Herbicidal rate of 90% or more (almost completely withered))

From patent publication US20230085307A1, “PYRIDAZINONE COMPOUND AND HERBICIDE” (NISSAN CHEMICAL CORPORATION, priority 2019, published 2023)
